From publication PMC6647725 (Analytical and Bioanalytical Chemistry, 2019)

Columns and labels:
[1] = Stability of stock solutions at − 20 °C; type: physicochemical; settings: 1 mg/mL stock solution, storage at − 20 °C
Protocol: (§1) The stability of each analyte was investigated in all the previously mentioned matrices. For plasma (both human and mouse), the stability was determined in triplicate at two concentration levels, QC L and QC H, whereas for mouse tissue homogenates only at QC M (except the brain in one stability condition). For all matrices, the following stability conditions were assessed: short term at room temperature (RT), long term at − 20 °C, and after 3 freeze-thaw (F/T) cycles at − 20 °C/RT. Furthermore, for tissue homogenates, the short-term stability in ice-water, long-term stability at − 70 °C, and F/T stability at − 70 °C/ice-water were also evaluated. Additionally, the stability in the final extract was tested. For this, the QC L and QC H final extracts from the plasma, brain, and spleen and the QC M final extract from the liver, kidney and small intestine were stored at 4–8 °C up to 3 days. Lastly, the stability of the stock solutions at − 20 °C was investigated.

[2] = Stability in mouse plasma and its final extract (LC-MS/MS); type: in vitro ADME
Protocol: 50 μL of the sample (either from a preclinical study, calibration standard, or QC) was mixed with 25 μL of IS-working solution, followed by 150 μL of ACN for protein precipitation. Samples were vortex mixed and centrifuged at 23,100g for 10 min at 20 °C. An aliquot of 80 μL of supernatant was diluted with 120 μL of 10 mM ammonium bicarbonate in water:MeOH (1:1 v/v). The final extract was transferred to a glass vial with insert, and 10 μL was injected to the LC-MS/MS system for analysis.
as §1, with “For this, the QC L and QC H final extracts from the plasma, brain, and spleen and the QC M final extract from the liver, kidney and small intestine were stored at 4–8 °C up to 3 days.” left out

[3] = Stability in mouse spleen homogenate and its final extract; type: in vitro ADME
Protocol: as §1, with “After weighing the complete organ, a volume of 3 mL of this solution was added to the liver and small intestine, 2 mL to the kidneys, and 1 mL to the brain and spleen. The tissue/BSA ratio (w/v) of the homogenates were approximately 0.4:1 for the brain and liver, 0.1:1 for the spleen, 0.2:1 for the kidneys, and 0.25:1 for the small intestine. All samples were shaken in the Fast Prep at 6.0 m/s during 60 s. The” for “The”

[4] = Stability in tissue homogenates; type: in vitro ADME, mouse; settings: for stability in tissue homogenates (in words): all tissue homogenates and conditions of Table 6
Protocol: as §1

[5] = tested on: CDK6; settings: cited from earlier work
[6] = Tissue distribution in mice after oral administration; type: in vivo, mouse (FVB); settings: female FVB mice, 20 mg/kg oral, 24 h
Protocol: After weighing the complete organ, a volume of 3 mL of this solution was added to the liver and small intestine, 2 mL to the kidneys, and 1 mL to the brain and spleen. The tissue/BSA ratio (w/v) of the homogenates were approximately 0.4:1 for the brain and liver, 0.1:1 for the spleen, 0.2:1 for the kidneys, and 0.25:1 for the small intestine. All samples were shaken in the Fast Prep at 6.0 m/s during 60 s. This method was developed to support pharmacokinetic and tissue distribution studies of the CDK4/6 inhibitors in mice (FVB background). These studies were done separately for each drug. Animal housing and studies were conducted according to institutional guidelines complying with Dutch and European Union legislation (approval number from The Dutch Central Animal Testing Committee: AVD301002016595). […] Approximately 50 μL of blood was collected from the tip of the tail at several time points, except at the last one, when 500–1000 μL of blood was collected by cardiac puncture under isoflurane anesthesia. […] Mice were sacrificed by cervical dislocation and the organs were collected and weighed. Plasma was obtained using sodium heparin as anticoagulant after centrifugation at 9000g, 4 °C, for 6 min. When necessary, 10 μL of mouse plasma was diluted with 40 μL of human plasma. […]

[7] = final extract (listed under mouse plasma), 4–8 °C, 4 d, nominal 5 ng/mL
[8] = final extract (listed under mouse plasma), 4–8 °C, 4 d, nominal 150 ng/mL
[9] = mouse plasma, 3 F/T (− 20 °C/RT), nominal 5 ng/mL
[10] = mouse plasma, 3 F/T (− 20 °C/RT), nominal 150 ng/mL
[11] = mouse plasma, RT, 3 d, nominal 150 ng/mL
[12] = mouse plasma, − 20 °C, 3 m, nominal 5 ng/mL
[13] = mouse plasma, − 20 °C, 3 m, nominal 150 ng/mL
[14] = final extract (listed under spleen homogenate), 4–8 °C, 3 d, nominal 5 ng/mL
[15] = final extract (listed under spleen homogenate), 4–8 °C, 3 d, nominal 150 ng/mL
[16] = spleen homogenate, 3 F/T (RT, − 20 °C), nominal 50 ng/mL
[17] = spleen homogenate, 3 F/T (− 70 °C, ice/water bath), nominal 50 ng/mL
[18] = spleen homogenate, LT − 20 °C, 1 m, nominal 50 ng/mL
[19] = spleen homogenate, LT − 70 °C, 1 m, nominal 50 ng/mL
[20] = spleen homogenate, RT, 3 h, nominal 50 ng/mL
[21] = spleen homogenate, RT, 1 d, nominal 50 ng/mL
[22] = spleen homogenate, ice/water bath, 3 h, nominal 50 ng/mL

| stability of stock solutions (time stable) [1] | Accuracy (% Bias) [2, 13] [%] | Accuracy (% Bias) [3, 14] [%] | Mean concentration [3, 14] [ng/mL] | Mean concentration [3, 16] [ng/mL] | Mean concentration [3, 17] [ng/mL] | Mean concentration [3, 18] [ng/mL] | Mean concentration [3, 19] [ng/mL] | Mean concentration [3, 20] [ng/mL] | Mean concentration [3, 21] [ng/mL] | Mean concentration [3, 22] [ng/mL] | stability in tissue homogenates (in words) [4] | Structure (SMILES) | IC50 [5] [nM] | also measured |
| --- | --- | --- | --- | --- | --- | --- | --- | --- | --- | --- | --- | --- | --- | --- |
| […] | 21.8 | 10.7 | […] | 48.7 | 56.1 | 48.6 | […] | […] | 46.5 | 52.4 | stable in all matrices at all conditions | CCN1CCN(Cc2ccc(Nc3ncc(F)c(-c4cc(F)c5nc(C)n(C(C)C)c5c4)n3)nc2)CC1 [Abemaciclib] | […] | Accuracy (% Bias) [2, 7]: 8.1%; Mean concentration [2, 7]: […]; Accuracy (% Bias) [2, 8]: 5.1%; Mean concentration [2, 8]: […]; Accuracy (% Bias) [2, 9]: […]; Mean concentration [2, 9]: […]; Accuracy (% Bias) [2, 10]: 7.6%; Mean concentration [2, 10]: […]; Mean concentration ([2]; mouse plasma, RT, 3 d, nominal 5 ng/mL): […]; Accuracy (% Bias) [2, 11]: 6.2%; Mean concentration [2, 11]: […]; Accuracy (% Bias) [2, 12]: 1.0%; Mean concentration [2, 12]: […]; Mean concentration [2, 13]: […]; Accuracy (% Bias) [3, 15]: 4.2%; Mean concentration [3, 15]: […]; Accuracy (% Bias) [3, 17]: […]; Accuracy (% Bias) [3, 19]: 3.5%; Accuracy (% Bias) [3, 20]: 3.4%; Accuracy (% Bias) [3, 22]: 4.9% |
| at least 12 months | 4.7 | 3.2 | […] | 42.9 | 49.9 | 40.5 | 45.0 | 44.3 | 21.8 | 46.2 | showed instability in tissue homogenates | CN(C)C(=O)c1cc2cnc(Nc3ccc(N4CCNCC4)cn3)nc2n1C1CCCC1 [Ribociclib] | 39 | concentration in the brain compared with other tissues [6]: […]; tissue distribution ([6]; spleen, kidney, liver, small intestine): highly distributed in the spleen and kidney, followed by the liver and small intestine; time stable in kidney and spleen homogenates ([4]; room temperature and ice/water bath): at least 3 h |
